# Assay results published in ChEMBL document CHEMBL3045542, “A quantitative structure-activity relationship study of herbicidal analogues of alpha-hydroxy-substituted 3-benzylidenepyrrolidene-2,4-diones” (2006).
# Experiments:
# Format in all cases: functional
# Digitaria sanguinalis [1] = experiment: Herbicidal activity against Digitaria sanguinalis (hairy crabgrass) assessed as inhibition of plant growth at 93.75 g/ha applied as pre-emergence treatment; conditions: for inhibition at 93.75 g/ha: Digitaria sanguinalis, pre-emergence
# Echinochloa crus-galli [2] = experiment: Herbicidal activity against Echinochloa crus-galli (barnyard grass) assessed as inhibition of plant growth at 375 g/ha applied as pre-emergence treatment; conditions: for inhibition at 375 g/ha: Echinochloa crus-galli, pre-emergence
# Echinochloa crus-galli [3] = experiment: Herbicidal activity against Echinochloa crus-galli (barnyard grass) assessed as inhibition of plant growth at 187.5 g/ha applied as pre-emergence treatment; conditions: for inhibition at 187.5 g/ha: Echinochloa crus-galli, pre-emergence
# Echinochloa crus-galli [4] = experiment: Herbicidal activity against Echinochloa crus-galli (barnyard grass) assessed as inhibition of plant growth at 750 g/ha applied as pre-emergence treatment; conditions: for inhibition at 750 g/ha: Echinochloa crus-galli, pre-emergence
# Digitaria sanguinalis [5] = experiment: Herbicidal activity against Digitaria sanguinalis (hairy crabgrass) assessed as inhibition of plant growth at 187.5 g/ha applied as pre-emergence treatment; conditions: for inhibition at 187.5 g/ha: Digitaria sanguinalis, pre-emergence
# Echinochloa crus-galli [6] = experiment: Herbicidal activity against Echinochloa crus-galli (barnyard grass) assessed as inhibition of plant growth at 10 ug/mL by cup test
# Digitaria sanguinalis [7] = experiment: Herbicidal activity against Digitaria sanguinalis (hairy crabgrass) assessed as inhibition of plant growth at 375 g/ha applied as pre-emergence treatment; conditions: for inhibition at 375 g/ha: Digitaria sanguinalis, pre-emergence
# Echinochloa crus-galli [8] = experiment: Herbicidal activity against Echinochloa crus-galli (barnyard grass) assessed as inhibition of plant growth at 93.75 g/ha applied as pre-emergence treatment; conditions: for inhibition at 93.75 g/ha: Echinochloa crus-galli, pre-emergence
# Digitaria sanguinalis [9] = experiment: Herbicidal activity against Digitaria sanguinalis (hairy crabgrass) assessed as inhibition of plant growth at 750 g/ha applied as pre-emergence treatment; conditions: for inhibition at 750 g/ha: Digitaria sanguinalis, pre-emergence
# [10] = tested as the Zn salt or complex
SMILES,inhibition at 93.75 g/ha (Digitaria sanguinalis [1]) [%],inhibition at 375 g/ha (Echinochloa crus-galli [2]) [%],inhibition at 187.5 g/ha (Echinochloa crus-galli [3]) [%],inhibition at 750 g/ha (Echinochloa crus-galli [4]) [%],inhibition at 187.5 g/ha (Digitaria sanguinalis [5]) [%],inhibition at 10 µg/mL (Echinochloa crus-galli [6]) [%],inhibition at 375 g/ha (Digitaria sanguinalis [7]) [%],inhibition at 93.75 g/ha (Echinochloa crus-galli [8]) [%],inhibition at 750 g/ha (Digitaria sanguinalis [9]) [%],inhibition (INH) (Echinochloa crus-galli [3]) [%],inhibition (INH) (Echinochloa crus-galli [8]) [%],inhibition (INH) (Digitaria sanguinalis [1]) [%],inhibition (INH) (Echinochloa crus-galli [2]) [%],inhibition (INH) (Echinochloa crus-galli [4]) [%],inhibition (INH) (Digitaria sanguinalis [5]) [%],inhibition (INH) (Digitaria sanguinalis [7]) [%],inhibition (INH) (Digitaria sanguinalis [9]) [%],further results
CCOc1ccc(/C(O)=C2\C(=O)CN(C(C)CC)C2=O)cc1 (stereo unspecified),18,82,28,93,41,78,59,7,96,–,–,–,–,–,–,–,–,–
COc1ccc(/C([O-])=C2\C(=O)CN(C(C)C)C2=O)c(OC)c1.COc1ccc(/C([O-])=C2\C(=O)CN(C(C)C)C2=O)c(OC)c1.[Zn+2],–,–,–,–,–,–,–,–,–,85,72,–,–,–,–,–,–,inhibition at 93.75 g/ha (Digitaria sanguinalis [1]; [10]): 15%; inhibition at 375 g/ha (Echinochloa crus-galli [2]; [10]): 100%; inhibition at 750 g/ha (Echinochloa crus-galli [4]; [10]): 100%; inhibition at 187.5 g/ha (Digitaria sanguinalis [5]; [10]): 82%; inhibition at 375 g/ha (Digitaria sanguinalis [7]; [10]): 100%; inhibition at 750 g/ha (Digitaria sanguinalis [9]; [10]): 100%
C=CCOc1ccc(/C(O)=C2\C(=O)CN(C(C)C)C2=O)cc1,0,95,55,100,36,78,74,30,79,–,–,–,–,–,–,–,–,–
CCC(C)N1CC(=O)/C(=C(/O)c2ccc(OC)cc2OC)C1=O (stereo unspecified),0,76,14,100,4,79,63,13,80,–,–,–,–,–,–,–,–,–
COc1ccc(/C(O)=C2\C(=O)CN(C(C)C)C2=O)c(OC)c1,–,–,–,–,–,78,–,–,–,56,10,20,94,99,84,95,95,–
CCOc1ccc(/C(O)=C2\C(=O)CN(C(C)C)C2=O)cc1,–,–,–,–,–,79,–,–,–,95,36,5,100,100,66,77,93,–
COc1ccc(/C([O-])=C2\C(=O)CN(C(C)C)C2=O)c(OC)c1.[Na+],–,–,–,–,–,–,–,–,–,100,73,10,100,100,90,100,100,–
